ChEMBL document CHEMBL1201862, “PubChem BioAssay data set” (2004)
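Five concentrations, 48 hours, 96-well plates. GI50 is the concentration that inhibits growth by half.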 Calls of active or inactive are those of the source. Cut-off read from the data, not from the text of the source: active = GI50 up to about 1.1 µM and inactive = higher.

Key:
Assay in all cases: inhibition of tumour cell growth, NCI panel, 48 h
A549 = tested on: A549
CCRF-CEM = tested on: CCRF-CEM
HL-60 = tested on: HL-60
SK-OV-3 = tested on: SK-OV-3
SNB-75 = tested on: SNB-75
UACC-257 = tested on: UACC-257
SF-295 = tested on: SF-295
IGROV-1 = tested on: IGROV-1
SW-620 = tested on: SW-620
HCT-116 = tested on: HCT-116
NCI-H460 = tested on: NCI-H460
KM12 = tested on: KM12
A498 = tested on: A498
EKVX = tested on: EKVX
Malme-3M = tested on: Malme-3M
NCI-H23 = tested on: NCI-H23
SF-539 = tested on: SF-539
UACC-62 = tested on: UACC-62
UO-31 = tested on: UO-31
NCI/ADR-RES = tested on: NCI/ADR-RES
COLO 205 = tested on: COLO 205
SNB-19 = tested on: SNB-19
MDA-N = tested on: MDA-N
SN12C = tested on: SN12C
786-0 = tested on: 786-0
PC-3 = tested on: PC-3
K562 = tested on: K562
U-251 = tested on: U-251
Hs-578T = tested on: Hs-578T
MDA-MB-435 = tested on: MDA-MB-435
M14 = tested on: M14
DU-145 = tested on: DU-145
MOLT-4 = tested on: MOLT-4
SR = tested on: SR
ACHN = tested on: ACHN
HOP-92 = tested on: HOP-92
T47D = tested on: T47D
NCI-H226 = tested on: NCI-H226
SK-MEL-5 = tested on: SK-MEL-5
LOX IMVI = tested on: LOX IMVI
TK-10 = tested on: TK-10
SK-MEL-2 = tested on: SK-MEL-2
HOP-62 = tested on: HOP-62
HCT-15 = tested on: HCT-15
SF-268 = tested on: SF-268
OVCAR-5 = tested on: OVCAR-5
RXF 393 = tested on: RXF 393
HT-29 = tested on: HT-29
OVCAR-4 = tested on: OVCAR-4
MCF7 = tested on: MCF7
RPMI-8226 = tested on: RPMI-8226
OVCAR-8 = tested on: OVCAR-8
SK-MEL-28 = tested on: SK-MEL-28
OVCAR-3 = tested on: OVCAR-3
MDA-MB-231 = tested on: MDA-MB-231
CAKI-1 = tested on: CAKI-1
HCC 2998 = tested on: HCC 2998
NCI-H522 = tested on: NCI-H522

In the case of `O=S(=O)(/N=S(/Nc1ccccc1)C(F)(F)Cl)c1ccccc1` (stereo not given), the GI50 (A549) is reported as > 100 µM (inactive), the GI50 (CCRF-CEM) is reported as > 100 µM (inactive) and the GI50 (HL-60) is reported as > 100 µM (inactive). For the same molecule, the GI50 (SK-OV-3) was > 100 µM (inactive), the GI50 (SNB-75) was > 100 µM (inactive) and the GI50 (UACC-257) was > 100 µM (inactive). The GI50 (SF-295) was > 100 µM (inactive), the GI50 (IGROV-1) was > 100 µM (inactive) and the GI50 (SW-620) was > 100 µM (inactive). The GI50 (HCT-116) was > 100 µM (inactive), the GI50 (NCI-H460) was > 100 µM (inactive) and the GI50 (KM12) was > 100 µM (inactive). The GI50 (A498) was > 100 µM (inactive), the GI50 (EKVX) was > 100 µM (inactive) and the GI50 (Malme-3M) was > 100 µM (inactive). For the same molecule, the GI50 (NCI-H23) was > 100 µM (inactive), the GI50 (SF-539) was > 100 µM (inactive) and the GI50 (UACC-62) was > 100 µM (inactive). For the same molecule, the GI50 (UO-31) was > 100 µM (inactive), the GI50 (NCI/ADR-RES) was > 100 µM (inactive) and the GI50 (COLO 205) was > 100 µM (inactive). The GI50 (SNB-19) was > 100 µM (inactive), the GI50 (MDA-N) was > 100 µM (inactive) and the GI50 (SN12C) was > 100 µM (inactive). The GI50 (786-0) was > 100 µM (inactive), the GI50 (PC-3) was > 100 µM (inactive) and the GI50 (K562) was > 100 µM (inactive). For the same molecule, the GI50 (U-251) was > 100 µM (inactive), the GI50 (Hs-578T) was > 100 µM (inactive) and the GI50 (MDA-MB-435) was > 100 µM (inactive). For the same molecule, the GI50 (M14) was > 100 µM (inactive), the GI50 (DU-145) was > 100 µM (inactive) and the GI50 (MOLT-4) was > 100 µM (inactive). The GI50 (SR) was > 100 µM (inactive), the GI50 (ACHN) was > 100 µM (inactive) and the GI50 (HOP-92) was > 100 µM (inactive). For the same molecule, the GI50 (T47D) was > 100 µM (inactive), the GI50 (NCI-H226) was > 100 µM (inactive) and the GI50 (SK-MEL-5) was > 100 µM (inactive). The GI50 (LOX IMVI) was > 100 µM (inactive), the GI50 (TK-10) was > 100 µM (inactive) and the GI50 (SK-MEL-2) was > 100 µM (inactive). For the same molecule, the GI50 (HOP-62) was > 100 µM (inactive), the GI50 (HCT-15) was > 100 µM and the GI50 (SF-268) was > 100 µM (inactive). For the same molecule, the GI50 (OVCAR-5) was > 100 µM (inactive), the GI50 (RXF 393) was > 100 µM (inactive) and the GI50 (HT-29) was > 100 µM (inactive). For the same molecule, the GI50 (OVCAR-4) was > 100 µM (inactive), the GI50 (MCF7) was > 100 µM (inactive) and the GI50 (RPMI-8226) was > 100 µM (inactive). The GI50 (OVCAR-8) was > 100 µM (inactive), the GI50 (SK-MEL-28) was > 100 µM (inactive) and the GI50 (OVCAR-3) was > 100 µM (inactive). The GI50 (MDA-MB-231) was > 100 µM (inactive).

For `CC1=NN(c2cccc(Cl)c2)C(=N/c2nc3ccccc3s2)/C1=C\c1ccccc1O`, the GI50 (CCRF-CEM) was 35.9 µM (inactive), the GI50 (HL-60) was 28.1 µM (inactive) and the GI50 (SK-OV-3) was 26 µM (inactive). For the same molecule, the GI50 (SNB-75) was 25.4 µM (inactive), the GI50 (UACC-257) was 21.9 µM (inactive) and the GI50 (SF-295) was 30.5 µM (inactive). For the same molecule, the GI50 (IGROV-1) was 19.7 µM (inactive), the GI50 (SW-620) was 31.6 µM (inactive) and the GI50 (HCT-116) was 26.7 µM (inactive). The GI50 (NCI-H460) was 27.1 µM (inactive), the GI50 (KM12) was 38.9 µM (inactive) and the GI50 (CAKI-1) was 33.7 µM (inactive). The GI50 (A498) was 23.2 µM (inactive), the GI50 (EKVX) was 64.9 µM (inactive) and the GI50 (NCI-H23) was 27.5 µM (inactive). The GI50 (SF-539) was 42.8 µM (inactive), the GI50 (UO-31) was 34 µM (inactive) and the GI50 (NCI/ADR-RES) was 24 µM (inactive). The GI50 (MDA-N) was 30.4 µM (inactive), the GI50 (HCC 2998) was 19.6 µM (inactive) and the GI50 (786-0) was 30.1 µM (inactive). For the same molecule, the GI50 (PC-3) was 20.5 µM (inactive), the GI50 (K562) was 37 µM (inactive) and the GI50 (U-251) was 23.8 µM (inactive). For the same molecule, the GI50 (Hs-578T) was 22 µM (inactive), the GI50 (MDA-MB-435) was 33.6 µM (inactive) and the GI50 (M14) was 38 µM (inactive). For the same molecule, the GI50 (NCI-H522) was 20 µM (inactive), the GI50 (DU-145) was 43.8 µM (inactive) and the GI50 (MOLT-4) was 34.2 µM (inactive). The GI50 (SR) was 40.6 µM (inactive), the GI50 (ACHN) was 25.6 µM (inactive) and the GI50 (HOP-92) was 24.4 µM (inactive). For the same molecule, the GI50 (T47D) was 36.4 µM (inactive), the GI50 (NCI-H226) was 22.2 µM (inactive) and the GI50 (SK-MEL-5) was 19.7 µM (inactive). The GI50 (LOX IMVI) was 19.9 µM (inactive), the GI50 (TK-10) was 37.7 µM (inactive) and the GI50 (SK-MEL-2) was 18.9 µM (inactive). The GI50 (HOP-62) was 29.6 µM (inactive), the GI50 (HCT-15) was 27.6 µM and the GI50 (SF-268) was 24.2 µM (inactive). The GI50 (OVCAR-5) was 61.7 µM (inactive), the GI50 (RXF 393) was 38.1 µM (inactive) and the GI50 (HT-29) was 39.7 µM (inactive). The GI50 (OVCAR-4) was 47.5 µM (inactive), the GI50 (MCF7) was 29.3 µM (inactive) and the GI50 (RPMI-8226) was 34.8 µM (inactive). The GI50 (OVCAR-8) was 27.4 µM (inactive), the GI50 (SK-MEL-28) was 27.4 µM (inactive) and the GI50 (OVCAR-3) was 19.2 µM (inactive). The GI50 (MDA-MB-231) was 21 µM (inactive).

For `COCO[C@@H]1C[C@H]2C(O)Nc3ccccc3C(=O)N2C1` (stereo not given in full), the GI50 (A549) was > 100 µM (inactive), the GI50 (CCRF-CEM) was > 100 µM (inactive) and the GI50 (HL-60) was > 100 µM (inactive). The GI50 (SK-OV-3) was > 100 µM (inactive), the GI50 (SNB-75) was > 100 µM (inactive) and the GI50 (UACC-257) was > 100 µM (inactive). The GI50 (SF-295) was > 100 µM (inactive), the GI50 (IGROV-1) was > 100 µM (inactive) and the GI50 (SW-620) was > 100 µM (inactive). For the same molecule, the GI50 (NCI-H460) was > 100 µM (inactive), the GI50 (KM12) was > 100 µM (inactive) and the GI50 (CAKI-1) was > 100 µM (inactive). The GI50 (A498) was > 100 µM (inactive), the GI50 (EKVX) was > 100 µM (inactive) and the GI50 (NCI-H23) was > 100 µM (inactive). For the same molecule, the GI50 (SF-539) was > 100 µM (inactive), the GI50 (UACC-62) was > 100 µM (inactive) and the GI50 (UO-31) was > 100 µM (inactive). For the same molecule, the GI50 (NCI/ADR-RES) was > 100 µM (inactive), the GI50 (COLO 205) was > 100 µM (inactive) and the GI50 (SNB-19) was > 100 µM (inactive). For the same molecule, the GI50 (MDA-N) was > 100 µM (inactive), the GI50 (HCC 2998) was > 100 µM (inactive) and the GI50 (PC-3) was > 100 µM (inactive). The GI50 (K562) was > 100 µM (inactive), the GI50 (U-251) was > 100 µM (inactive) and the GI50 (Hs-578T) was > 100 µM (inactive). The GI50 (MDA-MB-435) was > 100 µM (inactive), the GI50 (M14) was > 100 µM (inactive) and the GI50 (DU-145) was > 100 µM (inactive). For the same molecule, the GI50 (MOLT-4) was > 100 µM (inactive), the GI50 (SR) was > 100 µM (inactive) and the GI50 (ACHN) was > 100 µM (inactive). For the same molecule, the GI50 (HOP-92) was > 100 µM (inactive), the GI50 (T47D) was > 100 µM (inactive) and the GI50 (NCI-H226) was > 100 µM (inactive). For the same molecule, the GI50 (SK-MEL-5) was > 100 µM (inactive), the GI50 (LOX IMVI) was > 100 µM (inactive) and the GI50 (TK-10) was > 100 µM (inactive). The GI50 (SK-MEL-2) was > 100 µM (inactive), the GI50 (HOP-62) was > 100 µM (inactive) and the GI50 (HCT-15) was > 100 µM. For the same molecule, the GI50 (SF-268) was > 100 µM (inactive), the GI50 (OVCAR-5) was > 100 µM (inactive) and the GI50 (RXF 393) was > 100 µM (inactive). For the same molecule, the GI50 (HT-29) was > 100 µM (inactive), the GI50 (OVCAR-4) was > 100 µM (inactive) and the GI50 (MCF7) was > 100 µM (inactive). For the same molecule, the GI50 (RPMI-8226) was > 100 µM (inactive), the GI50 (OVCAR-8) was > 100 µM (inactive) and the GI50 (SK-MEL-28) was > 100 µM (inactive). For the same molecule, the GI50 (OVCAR-3) was > 100 µM (inactive) and the GI50 (MDA-MB-231) was > 100 µM (inactive).
